Like-named read-outs stand apart in the source and are kept apart here.
Legend:
dopamine-β-hydroxylase [1] = details: literature, cited from earlier work; for dopamine-β-hydroxylase inhibiting effects, in words / duration of dopamine-β-hydroxylase inhibiting effect, in words: known compounds
dopamine-β-hydroxylase [2] = test: Noradrenaline and dopamine levels of the cerebrum (brain) in rats, % of controls; assay type: in vivo, male Wistar rats; details: rat, i.p., 400 mg/kg, time not given
Description: The dopamine-β-hydroxylase inhibiting effects of the new compounds according to the invention were examined by the following tests:
(§1) The tests were performed on male Wistar rats weighing 150 to 200 g. The dopamine-β-hydroxylase inhibiting effects of the compounds were evaluated by determining the change of noradrenaline, dopamine and adrenaline levels of the cerebrum, heart, spleen and adrenal gland. The serotonine and 5-hydroxy-indolylacetic acid levels of the cerebrum were also determined. The measurements were performed as follows:
(§2) The animals were decapitated, the cerebrum, heart, spleen and adrenal gland were removed quickly, and the organs were frozen by placing them on a metal sheet cooled with dry ice. The frozen organs were stored for a maximum of one night at -20° C.
The organs were weighed in the frozen state and then homogenized in 5.0 ml of 0.4 N perchloric acid containing 0.05% of EDTA-Naa and 0.1% of Na2 S2 O5. The homogenized mixtures were centrifuged as described above for the treatment of adrenal gland, the supernatants were decanted, and the pH was adjusted to 8.0±0.1 with a 0.1 molar tris buffer containing 20 g/l of NaOH and 25 g/l of EDTA-Na2. 100 mg of prepared Al2 O3 (Anton et al.: J. Pharm. Ther. 138, 360 (1962)) were added to the samples, and the mixtures were shaken mechanically for 20 minutes. Thereafter the Al2 O3 was washed with 2×10 ml of distilled water, and noradrenaline was eluted with 1.0 ml of 0.05 N perchloric acid. 0.5 ml samples of the eluate were used for the determination of noradrenaline. Noradrenaline was determined according to the method of Shellenberger et al. (Anal. Biochem. 39, 356 (1971)), with the following modifications of the basic procedure: 0.5 ml of 0.1 molar Na-K-phosphate buffer, containing 9 g/l of EDTA-Na2, were added to 0.5 ml of the eluate, and the catecholamines (noradrenaline in the examination of heart and spleen and noradrenaline and dopamine in the examination of the cerebrum) were oxidized with 0.1 ml of a 0.1 N iodine solution in 5% potassium iodide. After exactly 2 minutes, oxidation was stopped by adding 0.25 ml of a 2.5% sodium sulfite solution in 4.4 N aqueous sodium hydroxide to the mixture. 2 minutes after the introduction of the alkaline sulfite solution, 0.2 ml of concentrated acetic acid was added to the samples, whereupon the pH decreased to 4.4 to 4.5. Thereafter the samples were placed for 5 minutes in a drying oven heated to 100° C., and then the samples were cooled with ice water. The fluorescency of noradrenaline was measured with an OPTON spectrophotometer at wavelengths of 380 nm (excitation) and 490 nm (emission).
The brains were homogenized in 10 parts by volume of 0.4 N perchloric acid. The homogenized mixture was stored at -20° C. overnight; thereafter it was thawed and centrifuged as described above. A sample of the homogenized mixture corresponding to 0.5 g of brain was removed, the pH of the sample was adjusted to 8.0±0.1 with 0.1 molar tris-buffer of the above composition, and the sample was processed as described above for the determination of the noradrenaline content of heart and spleen, with the difference that 1.5 ml of 0.05 N perchloric acid was used as the eluting agent. 0.5 ml of the eluate was used to determine the noradrenaline and dopamine contents. The measurement was performed as described above, with the difference that samples of 0.5 ml were applied for the recording of the flourescence of noradrenaline. The residue was placed for 50 minutes into a drying oven heated to 100° C., thereafter the sample was cooled with ice water, and the fluorescence of dopamine was recorded at wavelengths of 325 nm (excitation) and 380 nm (emission).
In a further test series the serotonine and 5-hydroxy-indolylacetic acid contents were also determined, in addition to the determination of the noradrenaline and dopamine content, from the same sample. […]

[3] = test system: serotonine and 5-hydroxy-indolylacetic acid levels of the cerebrum; test: Serotonine and 5-hydroxy-indolylacetic acid levels of the cerebrum (brain) in rats, % of controls; assay type: in vivo, male Wistar rats; details: rat; for response vs control in vivo at 500 mg/kg: po, p.o.
Description: as §1, §2
In a further test series the serotonine and 5-hydroxy-indolylacetic acid contents were also determined, in addition to the determination of the noradrenaline and dopamine content, from the same sample. In this instance the brains were homogenized in 10 ml of 75% ethanol, 0.2 ml of EDTA-Na2 and 5% of ascorbic acid were added to the homogenized mixtures, and the homogenized mixtures were maintained at -20° C. overnight. The mixtures were centrifuged as described above, and 5.0 ml samples of the supernatant were removed. The samples were diluted with equal volumes of distilled water, and poured onto ion exchange columns of 0.5×1.5 cm dimensions, filled with buffered Amberlite CG-30 (200 to 400 mesh). The columns were washed with 5 ml of distilled water followed by 1.0 ml of 0.2 N hydrochloric acid, and the first effluent and the aqueous wash were collected for the determination of 5-hydroxy-indolylacetic acid. Elution was continued with a further 1.2 ml quantity of 0.2 N hydrochloric acid in order to remove noradrenaline, dopamine and serotonine. Samples of 0.3 ml were used for the determinations.
Noradrenaline and dopamine were determined by the method of Shellenberger, modified as described above, whereas serotonine was determined by the method of Curzon et al. (Brit. J. Pharmacol. 39, 653 (1970)). The basic method was modified as follows: A 0.5% solution of ortho-phthal(di)aldehyde in absolute ethanol was diluted with […] hydrochloric acid to 50-fold of its original volume, and 0.6 ml of the resulting 0.01% ortho-phthal(di)aldehyde solution were added immediately to 0.5 ml of the serotonine-containing sample. The sample was placed in a hot water bath for 10 minutes, thereafter cooled with tap water, and the flourescence was recorded at wavelengths of 360 nm (excitation) and 490 nm (emission).
5-Hydroxy-indolylacetic acid was determined from the mixture of the first effluent and the aqueous wash. 10 ml of distilled water and 0.2 ml of concentrated hydrochloric acid were added to the mixture, and the sample was poured onto a 0.8×4.0 cm column filled with Sephadex G-10. The column was washed with 15 ml of 0.1 N hydrochloric acid followed by 1.8 to 2.0 ml of 0.02 N aqueous ammonia, and then 5-hydroxy-indolylacetic acid was eluted with further 2.0 ml of the aqueous ammonia. 0.5 ml samples were used in the measurements, and the determination was performed according to the method of Korf et al. (Biochem. Pharmacol. 20, 659 (1971)).
In the tests disulfiram, 2,2-dipyridyl, bis(1-methyl-4-homopiperazinyl-thiocarbonyl)-disulfide, sodium diethyldithiocarbamate and N-phenyl-N'-(2-thiazolyl)-thiourea were used as reference substances. The values indicated in Table 1 are the percentages in relation to the amine levels of the controls measured in the same tests (±standard error). The statistical calculations were performed on a TPA/i type computer, using Student's t test.

in vivo = details: mouse, in vivo, mice
[4] = ip, i.p., 4 hours, read-out: Brain 5-HIAA level (percentages in relation to the controls)
[5] = ip, i.p., 4 hours, read-out: Brain SE level (percentages in relation to the controls)
[6] = ip, i.p., 8 hours, read-out: Brain 5-HIAA level (percentages in relation to the controls)
[7] = ip, i.p., 8 hours, read-out: Brain SE level (percentages in relation to the controls)

Compound | dopamine-β-hydroxylase inhibiting effects, in words (dopamine-β-hydroxylase [1]) | LD50 (in vivo; ip) [mg/kg] | response vs control in vivo at 200 mg/kg [3, 5] [%] | response vs control in vivo at 200 mg/kg [3, 7] [%] | other results
NOCc1ccccc1 [Benzyloxyamine] | exert dopamine-β-hydroxylase inhibiting effects | – | – | – | duration of dopamine-β-hydroxylase inhibiting effect, in words (dopamine-β-hydroxylase [1]): only active for a short period
CCN(CC)C(=S)[S-].[Na+] [DDC-Na, sodium diethyldithiocarbamate] | – | – | – | – | Brain DA level (percentages in relation to the controls) (dopamine-β-hydroxylase [2]): 120%; Brain NA level (percentages in relation to the controls) (dopamine-β-hydroxylase [2]): 64.1%
CN1CCCN(C(=S)SSC(=S)N2CCCN(C)CC2)CC1 [FLA-63, bis(1-methyl-4-homopiperazinyl)-thiocarbonyl-disulfide] | – | 150 | – | – | response vs control in vivo at 50 mg/kg [3, 4]: 134%; response vs control in vivo at 50 mg/kg [3, 5]: 124%; dopamine-β-hydroxylase inhibition in vivo, in words (dopamine-β-hydroxylase [1]; in vivo conditions): one of the most potent dopamine-β-hydroxylase inhibitors under in vivo conditions
CCCCc1ccc(C(=O)O)nc1 [Fusaric acid, 5-butyl-picolinic acid] | strong dopamine-β-hydroxylase inhibiting effects | – | – | – | LD50 (in vivo; po): 230 ± 25 mg/kg
NNc1nncc2ccccc12 [Hydralazine] | possess dopamine-β-hydroxylase inhibiting effects | 83 | – | – | –
NC1=C(C(=S)SSC(=S)C2=C(N)CCC2)CCC1 [M-1] | – | ~800 | 115 ± 4.7 | 111 ± 5.1 | response vs control in vivo at 200 mg/kg [3, 4]: 152%; response vs control in vivo at 200 mg/kg [3, 6]: 125 ± 10.7%
CCCCNC1=C(C(=S)SSC(=S)C2=C(NCCCC)CCC2)CCC1 [M-2, 2-(N-butyl)-amino-cyclopent-1-ene-thiocarboxylic acid-disulfide] | – | – | 97.6 | 97.3 ± 11.3 | –
S=C(SSC(=S)C1=C(NC2CCCCC2)CCC1)C1=C(NC2CCCCC2)CCC1 [M-5, 2-(N-cyclohexyl)-amino-cyclopent-1-ene-thiocarboxylic acid disulfide] | – | > 1000 | 104 ± 7.6 | 105 ± 4.5 | response vs control in vivo at 200 mg/kg [3, 4]: 143 ± 8%; response vs control in vivo at 200 mg/kg [3, 6]: 178 ± 10.8%
CCNC1=C(C(=S)SSC(=S)C2=C(NCC)CCC2)CCC1 [M-6, 2-(N-ethyl)-amino-cyclopent-1-ene-thiocarboxylic acid-disulfide] | – | 1000 to 1500 | 112 ± 5.2 | 104 ± 7.4 | response vs control in vivo at 100 mg/kg ([3]; ip, i.p., 100 mg/kg, 4 hours, read-out: Brain SE level (percentages in relation to the controls)): 107 ± 2.2%; response vs control in vivo at 200 mg/kg [3, 4]: 155 ± 8.5%; response vs control in vivo at 200 mg/kg [3, 6]: 195 ± 4.8%; response vs control in vivo at 500 mg/kg ([3]; 4 hours, read-out: Brain SE level (percentages in relation to the controls)): 118 ± 4.6%; response vs control in vivo at 500 mg/kg ([3]; 8 hours, read-out: Brain SE level (percentages in relation to the controls)): 91.2 ± 0.9%
C=CCNC1=C(C(=S)SSC(=S)C2=C(NCC=C)CCC2)CCC1 [M-7, 2-(N-allyl)-amino-cyclopent-1-ene-thiocarboxylic acid-disulfide] | – | > 1000 | 113 ± 8 | 108 | response vs control in vivo at 200 mg/kg [3, 4]: 117 ± 6.5%; response vs control in vivo at 200 mg/kg [3, 6]: 126 ± 10.5%
O=C(CO)c1coc(=O)c2c(O)cccc12 [Oosponol] | strong dopamine-β-hydroxylase inhibiting effects | 40 | – | – | LD50 (in vivo; po): 280 mg/kg
CC(N)Cc1ccccc1 (stereo not shown) [amphetamine] | possess dopamine-β-hydroxylase inhibiting effects | – | – | – | –
NNCc1ccccc1 [benzylhydrazine] | exert dopamine-β-hydroxylase inhibiting effects | – | – | – | duration of dopamine-β-hydroxylase inhibiting effect, in words (dopamine-β-hydroxylase [1]): only active for a short period
CCN(CC)C(=S)S [diethyl dithiocarbamate] | strong dopamine-β-hydroxylase inhibiting effects | – | – | – | –
Cn1cc[nH]c1=S [methimazol] | possess dopamine-β-hydroxylase inhibiting effects | – | – | – | –
Dopastine | strong dopamine-β-hydroxylase inhibiting effects | – | – | – | –

— patent US4179467A, “Dopamine hydroxylase inhibiting 2-amino-cyclopent-1-ene-1-thiocarboxylic acid-disulfides” (Richter Gedeon Vegyeszeti Gyar Rt., priority 1976, dated 1979)
